# According to US6949516B2, “Dipeptide apoptosis inhibitors and the use thereof” (Cytovia, Inc., priority 1997, dated 2005):
# Where a SMILES comes first, the peptide text is derived from it. The star is where a group is joined. Cbz = O=C(OCc1ccccc1)*; CH2F = FC*
# What was measured:
# HeLa cells = assay: Effect of Z-VD-fmk on TNF-α-induced cell death in HeLa cells (calcein AM, Example 25); format: cell-based; conditions: below 1 μM (data not shown)
# Experimental: Tumor necrosis factor alpha (TNF-α) can trigger apoptosis in a number of cell types by initiating the caspase cascade and its apoptosis inducing activity can be inhibited by peptide-based caspase inhibitors. However, high concentrations of the inhibitors (50 μM or greater) is required to have good anti-apoptotic effect. HeLa cells, a cell line commonly employed in TNF-α cell death studies, was used here to determine the anti-apoptotic potency of Z-VD-fmk.
# HeLa cells were seeded in 48-well multidishes at a density of 50,000 cells per well 24 hours before treatment. They were then pre-incubated with varying concentrations of Z-VD-fmk for 2 hours and challenged with TNF-α (25 ng/mL) and cycloheximide (CHX; 30 μg/mL). The cultures were incubated for an additional 24 hours and dead cells were removed by two washes with PBS. The density of surviving cells was then measured by incubating each culture for 45 minutes with calcein AM, a profluorescent dye which is taken up by living cells and converted to a fluorescent product. The resulting data were expressed as % control values (control values were cells incubated with cycloheximide but without TNF-α).
# Z-VD-fmk provided good cytoprotection at concentrations approaching 100 nM.
# [1] = test system: PARP cleavage in Jurkat cells; assay: Effect of Z-VD-fmk on PARP cleavage in antiFas-treated Jurkat cells (Example 24); format: cell-based, human
# Experimental: Poly(ADP)ribose polymerase (PARP) was one of the first caspase-3 substrates identified and the cleavage of PARP is still considered to be a near-universal marker for caspase-3 activation and caspase-mediated apoptosis. The ability of an anti-apoptotic compound to block PARP cleavage is therefore a useful indicator of its ability to inhibit apoptosis. The potency of Z-VD-fmk in a PARP cleavage assay was tested using antiFas-treated Jurkat cells. 2×10^6 Jurkat cells were seeded in each well of a 6-well dish and pre-incubated with test compounds for 30 minutes. The cells were then challenged with 500 ng/mL of an agonistic antiFas antibody or PBS for 4 hours. The cells were then harvested, pelleted gently, washed two times with PBS and lysed in RIPA buffer. Aliquots of the lysate were analyzed by SDS-PAGE and the proteins were transferred to PVDF membranes for Western blotting. The primary antibody was a polyclonal antiPARP serum which cross-reacts with both full-length PARP and the caspase-3-generated cleavage product.
smiles,measurement,setting,value
"COC(=O)C[C@H](NC(=O)[C@H](C)NC(=O)[C@@H](NC(=O)OCc1ccccc1)C(C)C)C(=O)CF [Z-VAD-fmk, reference compound] (Cbz-Val-Ala-Asp(OMe)-CH2F)",cytoprotection against TNF-α-induced cell death,HeLa cells,loses much of its cytoprotective properties
same,inhibition of PARP cleavage,"[1]; 500 nM, antiFas-treated Jurkat cells",much less effective
same,inhibition of PARP cleavage,"[1]; 5 μM, antiFas-treated Jurkat cells (data not shown)",effective inhibitor
